Laboratory results reported in ChEMBL document CHEMBL6177939, “The role of silicon in drug discovery: a review” (RSC Med Chem, 2024).
pIC50: −log10 of the molar value. Converted amounts (≈) assume the structure as drawn.

Key:
MDA-MB-435 [1] = experiment: Antiproliferative activity against human MDA-MB-435 cells assessed as reduction in cell viability incubated for 24 hrs by MTT assay; assay type: functional, cell-based; conditions: MDA-MB-435, 24 h
HT-29 = experiment: Antiproliferative activity against human HT-29 cells assessed as reduction in cell viability incubated for 24 hrs by MTT assay; assay type: functional, cell-based; conditions: HT-29, 24 h
HeLa = experiment: Antiproliferative activity against human Hela cells assessed as reduction in cell viability incubated for 24 hrs by MTT assay; assay type: functional, cell-based
Entamoeba histolytica = experiment: Antiparasitic activity against Entamoeba histolytica HM-1:IMSS assessed as reduction in parasite growth incubated for 48 hrs by MTT assay; assay type: functional, organism-based
Giardia intestinalis = experiment: Antiparasitic activity against Giardia intestinalis Portland 1 assessed as reduction in parasite growth incubated for 48 hrs by MTT assay; assay type: functional, organism-based; conditions: Giardia duodenalis, Portland 1, 48 h
[2] = system: Mycobacterium tuberculosis; experiment: Antimycobacterial activity against Mycobacterium tuberculosis H37Rv assessed as inhibition of bacterial growth incubated for 24 hrs by alamar blue assay; assay type: functional
HT-1080 [3] = experiment: Cytotoxicity against human HT-1080 cells assessed as reduction in cell growth by measuring lethal concentration for 72 hrs by MTT assay; assay type: functional
NIH3T3 = experiment: Cytotoxicity against mouse NIH3T3 cells assessed as reduction in cell growth by measuring lethal concentration for 72 hrs by MTT assay; assay type: toxicity, cell-based; conditions: nih3t3, 72 h
MG-22A [4] = experiment: Cytotoxicity against mouse MG-22A cells assessed as reduction in cell growth by measuring lethal concentration for 72 hrs by MTT assay; assay type: functional
MG-22A [5] = experiment: Cytotoxicity against mouse MG-22A cells assessed as reduction in cell growth by MTT assay; assay type: functional, cell-based
HT-1080 [6] = experiment: Cytotoxicity against human HT-1080 cells assessed as reduction in cell growth by MTT assay; assay type: functional, cell-based
MG-22A [7] = experiment: Cytotoxicity against mouse MG-22A cells assessed as reduction in cell growth measured for 72 hrs by MTT assay; assay type: functional, cell-based
HT-1080 [8] = experiment: Cytotoxicity against human HT-1080 cells assessed as reduction in cell growth measured for 72 hrs by MTT assay; assay type: functional, cell-based; conditions: HT-1080, 72 h
COLO 205 = experiment: Antiproliferative activity against human COLO 205 cells assessed as reduction in cell growth incubated for 24 hrs by MTT assay; assay type: functional, cell-based; conditions: COLO 205, 24 h
A2780 = experiment: Antiproliferative activity against human A2780 cells assessed as reduction in cell growth incubated for 24 hrs by MTT assay; assay type: functional, cell-based; conditions: A2780, 24 h
COLO 320 = experiment: Antiproliferative activity against human COLO 320 cells assessed as reduction in cell growth incubated for 24 hrs by MTT assay; assay type: functional, cell-based; conditions: COLO 320, 24 h
MDA-MB-435 [9] = experiment: Cytotoxicity against human MDA-MB-435 cells assessed as reduction in cell viability incubated for 48 hrs by SRB assay; assay type: functional, cell-based; conditions: MDA-MB-435, 48 h
Mythimna separata = experiment: Toxicity in Mythimna separata assessed as lethal dose; assay type: organism-based
Plutella xylostella = experiment: Toxicity in Plutella xylostella assessed as lethal dose; assay type: organism-based
[10] = biological target: Angiotensin-converting enzyme (Homo sapiens, UniProt P12821); experiment: Inhibition of ACE (unknown origin) using N-[3-(2-furyl)-acryloyl]- L -phenylalanylglycylglycin as substrate incubated for 5 mins
[11] = Acute toxicity in po dosed mouse assessed as lethal dose; assay type: organism-based; conditions: in vivo
Staphylococcus aureus [12] = experiment: Antibacterial activity against Staphylococcus aureus; assay type: functional
Pseudomonas aeruginosa [13] = experiment: Antibacterial activity against Pseudomonas aeruginosa; assay type: functional
Escherichia coli [14] = experiment: Antibacterial activity against Escherichia coli; assay type: functional
Aedes aegypti = experiment: […] activity against Aedes aegypti assessed as protection time at 0.5 microg/cm; assay type: functional
Escherichia coli [15] = experiment: Antibacterial activity against Escherichia coli ATCC 25922 assessed as reduction in cell growth incubated for 18 hrs by two-fold serial dilution method; assay type: functional
Acinetobacter baumannii = experiment: Antibacterial activity against Acinetobacter baumannii ATCC 19606 assessed as reduction in cell growth incubated for 18 hrs by two-fold serial dilution method; assay type: functional
Pseudomonas aeruginosa [16] = experiment: Antibacterial activity against Pseudomonas aeruginosa ATCC 27853 assessed as reduction in cell growth incubated for 18 hrs by two-fold serial dilution method; assay type: functional
Staphylococcus aureus [17] = experiment: Antibacterial activity against Staphylococcus aureus ATCC 25923 assessed as reduction in cell growth incubated for 18 hrs by two-fold serial dilution method; assay type: functional
P388 = experiment: Antiproliferative activity against mouse P388 cells; assay type: functional, cell-based

Chain of Angiotensin-converting enzyme (P12821 whole entry): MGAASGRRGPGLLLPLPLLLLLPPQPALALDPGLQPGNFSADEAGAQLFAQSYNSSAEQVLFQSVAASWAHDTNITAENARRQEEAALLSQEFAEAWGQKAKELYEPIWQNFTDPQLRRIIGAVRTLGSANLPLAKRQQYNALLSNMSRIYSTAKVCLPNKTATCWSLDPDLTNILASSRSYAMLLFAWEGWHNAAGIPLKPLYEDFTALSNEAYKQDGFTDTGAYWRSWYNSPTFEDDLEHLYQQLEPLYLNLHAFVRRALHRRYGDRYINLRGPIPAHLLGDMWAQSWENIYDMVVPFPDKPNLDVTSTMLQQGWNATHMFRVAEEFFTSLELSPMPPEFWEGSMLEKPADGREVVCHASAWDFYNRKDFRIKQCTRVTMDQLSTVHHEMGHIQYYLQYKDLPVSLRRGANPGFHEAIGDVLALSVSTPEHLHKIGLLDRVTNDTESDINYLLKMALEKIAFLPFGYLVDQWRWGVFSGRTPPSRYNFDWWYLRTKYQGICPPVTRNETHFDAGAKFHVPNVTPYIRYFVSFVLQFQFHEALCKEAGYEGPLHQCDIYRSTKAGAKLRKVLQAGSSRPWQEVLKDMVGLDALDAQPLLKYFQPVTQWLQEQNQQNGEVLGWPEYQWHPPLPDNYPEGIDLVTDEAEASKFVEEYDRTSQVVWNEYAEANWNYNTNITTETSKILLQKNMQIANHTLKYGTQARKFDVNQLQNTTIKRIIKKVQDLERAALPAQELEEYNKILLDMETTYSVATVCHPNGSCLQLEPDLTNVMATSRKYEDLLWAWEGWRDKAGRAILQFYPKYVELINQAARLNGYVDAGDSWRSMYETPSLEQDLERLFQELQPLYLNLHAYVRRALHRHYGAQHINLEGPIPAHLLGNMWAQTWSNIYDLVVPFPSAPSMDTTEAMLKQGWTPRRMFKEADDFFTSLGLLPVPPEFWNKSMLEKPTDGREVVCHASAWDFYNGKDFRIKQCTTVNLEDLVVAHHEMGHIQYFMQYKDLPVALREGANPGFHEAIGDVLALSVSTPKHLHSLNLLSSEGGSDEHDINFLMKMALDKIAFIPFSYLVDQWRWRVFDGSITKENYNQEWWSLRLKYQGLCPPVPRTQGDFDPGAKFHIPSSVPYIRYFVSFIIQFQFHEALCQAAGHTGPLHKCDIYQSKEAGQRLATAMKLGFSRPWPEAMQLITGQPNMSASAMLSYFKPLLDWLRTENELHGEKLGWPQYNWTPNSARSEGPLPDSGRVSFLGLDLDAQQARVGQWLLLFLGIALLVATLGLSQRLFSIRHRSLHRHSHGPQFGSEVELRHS

Q: What does the source list for `CC1C[N+]23CC(C)O[Si-]2(CCC/N=C/c2cccc([N+](=O)[O-])c2)(O1)OC(C)C3` (configuration not stated)?
A: IC50 (MDA-MB-435 [1]): 12.5 µg/mL (≈ 30.7 µM); IC50 (HT-29): 12.3 µg/mL (≈ 30.2 µM); IC50 (HeLa): 11.8 µg/mL (≈ 29 µM)

Q: With `C(=N\CCNCCC[Si-]123OCC[N+]1(CCO2)CCO3)/c1ccc2ccc3cccc4ccc1c2c34` (configuration not stated) as the compound, how does the pIC50 (Entamoeba histolytica) read?
A: Its pIC50 is 4.24.

Q: And the pIC50 (Giardia intestinalis)?
A: The pIC50 was 6.25.

Q: With `Cc1c(CN2CCN(C)CC2)cc(-c2ccc(Cl)cc2)n1-c1ccc(Cl)cc1` as the compound, how does the MIC [2] read?
A: The MIC was 1.7 µM.

Q: Which LC50 (HT-1080 [3]) does the source give for `CCCCCCCCCOCCc1sc[n+](CCC[Si](C)(C)C)c1C.[I-]` here?
A: The LC50 was 0.1 µg/mL.

Q: And the LC50 (NIH3T3)?
A: The LC50 was 0.1 µg/mL.

Q: And the LC50 (MG-22A [4])?
A: The LC50 was 0.1 µg/mL.

Q: For `CCCC[Si](CC)(CCCC)OCC[N+](C)(C)C.[I-]`, which IC50 (MG-22A [5]) is on record?
A: Its IC50 is 1 µg/mL.

Q: What about the IC50 (HT-1080 [6]) of the same compound?
A: Its IC50 is 3 µg/mL.

Q: With `C[Si]1(C)CCN(C(=O)/C=C/c2ccc3c(c2)OCO3)CC1` as the compound, how does the MIC [2] read?
A: Its MIC is 50 µg/mL.

Q: Which IC50 (MG-22A [7]) does the source give for `CCCCCCCCCC[Si](C)(CCCCCCCCCC)OCC[N+](C)(C)C.[I-]` here?
A: Its IC50 is 1 µg/mL.

Q: What about the IC50 (HT-1080 [8]) of the same compound?
A: Its IC50 is 0.3 µg/mL.

Q: What does the source list for `CC[C@@]1(O)C(=O)OCc2c1cc1n(c2=O)Cc2c-1nc1ccccc1c2CC[Si](C)(C)C` [COSITECAN]?
A: pIC50 (COLO 205): 8.82; pIC50 (A2780): 8.74; pIC50 (COLO 320): 8.82

Q: With `C[Si]1(C)CCN(C(=O)/C=C/C=C/c2ccc3c(c2)OCO3)CC1` as the compound, how does the MIC [2] read?
A: Its MIC is 50 µg/mL.

Q: With `CC[C@@]1(O)C(=O)OCc2c1cc1n(c2=O)Cc2cc3ccccc3nc2-1` [CAMPTOTHECIN] as the compound, how does the pIC50 (MDA-MB-435 [9]) read?
A: The pIC50 was 7.82.

Q: Which results are given for `CCS(=O)(=O)c1cccnc1-c1nc2cc(S(=O)(=O)C(F)(F)F)ccc2o1`?
A: LC50 (Mythimna separata): 4.68 µg/mL (≈ 11.1 µM); LC50 (Plutella xylostella): 0.21 µg/mL (≈ 0.5 µM)

Q: With `CC(C)CC(NC(=O)c1ccccc1)[Si](C)(O)CC(C)C(=O)N1CCC[C@H]1C(=O)O` (mixture of isomers) as the compound, how does the pIC50 [10] read?
A: Its pIC50 is 7.85.

Q: With `CCCC(C)(COC(N)=O)COC(N)=O` [MEPROBAMATE] as the compound, how does the LD50 [11] read?
A: The LD50 was 700 mg/kg.

Q: What does the source list for `CC1C[N+]23CC(C)O[Si-]2(CCCNCC/N=C/c2ccc4ccc5cccc6ccc2c4c56)(O1)OC(C)C3` (configuration not stated)?
A: pIC50 (Entamoeba histolytica): 5.94; pIC50 (Giardia intestinalis): 4.35

Q: For `C[Si](C)(C)c1cc(C(F)(C(F)(F)F)C(F)(F)F)cc(Br)c1NC(=O)c1cccc(NC(=O)c2ccccc2)c1`, which LC50 (Mythimna separata) is on record?
A: The LC50 was 2 µg/mL (≈ 3.15 µM).

Q: With `COc1cc(/C=N/CCC[Si](OC)(OC)OC)ccc1OCc1cn(CCOc2ccccc2[N+](=O)[O-])nn1` as the compound, how does the MIC (Staphylococcus aureus [12]) read?
A: Its MIC is 1.87 µg/mL (≈ 3.34 µM).

Q: What about the MIC (Pseudomonas aeruginosa [13]) of the same compound?
A: Its MIC is 15 µg/mL (≈ 26.8 µM).

Q: And the MIC (Escherichia coli [14])?
A: Its MIC is 15 µg/mL (≈ 26.8 µM).

Q: Which Time (Aedes aegypti) does the source give for `C[Si]1(C)CCN(C(=O)C2=CCCCC2)CC1` here?
A: The Time was 756 min.

Q: Which results are given for `CC1C[N+]23CC(C)O[Si-]2(CCCN2C(=O)c4ccccc4C2=O)(O1)OC(C)C3` (configuration not stated)?
A: MIC (Escherichia coli [15]): 0.2 µg/mL (≈ 0.494 µM); MIC (Acinetobacter baumannii): 0.2 µg/mL (≈ 0.494 µM); MIC (Pseudomonas aeruginosa [16]): 0.2 µg/mL (≈ 0.494 µM); MIC (Staphylococcus aureus [17]): 0.2 µg/mL (≈ 0.494 µM)

Q: For `C=C1C[C@](OC)([C@H](O)C(=O)N[C@H]2OCO[C@H]3[C@@H]2O[C@H](C[C@@H](CO)OC)C(C)(C)[C@@H]3OC)O[C@H](C)[C@@H]1C` [MYCALAMIDE B], which IC50 (P388) is on record?
A: The IC50 was 0.1 ng/mL (≈ 0.000193 µM).

Q: Which LC50 (Mythimna separata) does the source give for `CCS(=O)(=O)c1cc([Si](C)(C)C)cnc1-c1nc2cc(S(=O)(=O)C(F)(F)F)ccc2o1` here?
A: The LC50 was 4.8 µg/mL (≈ 9.74 µM).

Q: What about the LC50 (Plutella xylostella) of the same compound?
A: Its LC50 is 0.3 µg/mL (≈ 0.609 µM).
